Assay in all cases: growth of human tumour cells (NCI), 48 h
Assay [1] has as its system BT-549 breast.
Assay [2] deals with HL-60(TB) leukemia.
For assay [3], the system named is IGROV1 ovarian.
The test system of assay [4] is K-562 leukemia.
For assay [5], the system named is KM12 colon.
Assay [6] has as its system MCF7 breast.
For assay [7], the system named is MOLT-4 leukemia.
Assay [8] has as its system NCI-H23 lung.
Assay [9] deals with NCI-H460 lung.
Assay [10] relates to NCI-H522 lung.
Assay [11] concerns OVCAR-8 ovarian.
In assay [12] the test system is TK-10 renal.
The test system of assay [13] is UACC-257 melanoma.
Assay [14] has as its system UO-31 renal.

Several values for one entry are separate records, joined by “and”; a condition that tells them apart may be missing. Equal entries are not always repeated.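 How tested: cells in 96-well plates exposed to compound for 48 hours at five concentrations. GI50 is the concentration that inhibits growth by half. TGI: total growth inhibition.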 Where only a bound is given, the exact number is not on record here.

Take `O=c1c2cc(I)ccc2nc(-c2cccs2)n1O`: the TGI in assay [1], in [2], in assay [3], in assay [4], in assay [5] and in assay [6] was over 100 µM throughout. For the same molecule, the TGI is over 100 µM in assay [7]; over 100 µM in assay [8]; over 100 µM in [9]; over 100 µM in [10]; over 100 µM in assay [11]; 79.4 µM in assay [12]. Further, the TGI in assay [13] and in assay [14] was over 100 µM in each case.
Take `CCOC(=O)c1cc2c3c(cc(OC)c2[nH]1)N(C(=O)OCC)CC3`: the TGI in [1], in [2], in assay [3], in [4], in [5] and in [6] was over 100 µM throughout. Besides, the TGI in assay [7], in [8], in assay [9], in [11], in assay [13] and in assay [14] was over 100 µM in each case.
For the molecule `CCCCCCCc1ccc(-c2nnc(N=Nc3ccc(OCCCCC)cc3)s2)s1`, the TGI in assay [1], in [2], in [3], in assay [5], in assay [6] and in assay [7] was over 100 µM in each case. Further, the TGI in assay [8], in [9], in assay [10], in assay [12], in assay [13] and in assay [14] was over 100 µM each time.
For the molecule `CCC(=C/[C@H](C)C/C=C/C(C)=C/[C@@H](C)C(=O)[C@@H](C)[C@H](O)[C@@H](C)CC)/C=C/[C@H]1CC=CC(=O)O1`, the TGI in assay [1] was 1.37 µM; in assay [2], 0.0126 µM; in assay [3], 3.96 µM and 10.4 µM; in assay [6], 0.0033 µM; in assay [8] it was 5.26 µM and 13.3 µM; in [9], 1.26 µM and 1.64 µM. The TGI in assay [10] was under 0.0012 µM; in assay [11] it was 2.79 µM and 11.3 µM; in [12], 1.91 µM and 14.3 µM; in [13], 2.22 µM and 18 µM. Also, the GI50 in [7] was under 0.0012 µM.
On to `S=c1[nH]nc(CCCCCCCCc2n[nH]c(=S)o2)o1`, for which the TGI in [1], in [2], in assay [3], in [4], in assay [5] and in [6] was over 100 µM throughout. The TGI in [7], in assay [8], in [9], in assay [11], in assay [12] and in [13] was over 100 µM throughout. In assay [14], this molecule displayed a TGI of over 100 µM.
`CN(C)C(=O)Oc1ccc(C(=S)Nc2ccccc2)cc1`: the TGI in [1] was 79.7 µM; in assay [2], 84.9 µM; in assay [3], over 100 µM; in assay [4], over 100 µM; in assay [5], over 100 µM; in assay [6] it was over 100 µM. The TGI in assay [7] is 64 µM; in assay [8], over 100 µM; in assay [9], over 100 µM; in assay [10] it was over 100 µM; in [11], 64 µM; in assay [13], over 100 µM. The molecule also yielded a TGI in assay [14] of over 100 µM.
Regarding `COc1cccc(CCCNC(=O)Cc2ccccc2CO)c1`, the TGI in assay [1], in [2], in assay [3], in assay [4], in [5] and in assay [6] was over 100 µM in each case. The TGI in assay [7], in [8], in [9], in assay [11], in assay [12] and in assay [13] was over 100 µM in each case. The molecule further had a TGI in assay [14] of over 100 µM.
Take `COc1ccc(C23OCC(Cc4cc(OC)c(OC)cc42)C3CO)cc1OC` (configuration not stated): the TGI in assay [1], in [2], in assay [4], in [5], in assay [6] and in [7] was over 100 µM throughout. The TGI in [8], in [9], in assay [10], in assay [12] and in [14] was over 100 µM each time.
Turning to `O=C1/C(=C/c2ccc(Cl)cc2)Oc2ccccc21`, the TGI in assay [1], in assay [2], in assay [4], in [5], in assay [6] and in assay [7] was over 100 µM each time. The TGI in assay [8] was 73.1 µM; in assay [9], over 100 µM; in assay [10] it was 34.5 µM; in [11] it was 89.5 µM; in assay [12], 64.3 µM; in assay [13], over 100 µM. In [14], this molecule registered a TGI of 30.4 µM.
With `COc1cc2c(cc1OC)C(=O)N(c1ccc(OCCN3CCCC3)cc1)C2=O`, the TGI in assay [1], in [2], in [3], in [4], in [5] and in [6] was over 100 µM throughout. In addition, the TGI in [7], in assay [8], in assay [9], in assay [10], in assay [11] and in [12] was over 100 µM each time. In assay [13], this molecule returned a TGI of over 100 µM.
In the case of `CC(=O)NN(c1ccccc1)C1CCN(c2ccccc2)N1C(C)=O` (configuration not stated), the TGI was over 10 µM in [1]; over 10 µM in assay [2]; over 10 µM in [3]; 7.65 µM in assay [4]; over 10 µM in assay [6]; over 10 µM in assay [7]. The TGI in assay [8], in assay [9], in assay [10], in assay [11], in assay [12] and in [13] was over 10 µM in each case. The TGI in assay [14] was over 10 µM.
`CC[C@]1(Cc2ccc(OC)c(OC)c2)C=[N+]([O-])O[C@H](OC2CCCC2(c2ccccc2)c2ccccc2)[C@@H]1OC(=O)C(C)(C)C` (some centres not stated): the TGI in [1] is over 44.5 µM; in [2] it was 8.1 µM; in assay [3] it was 9 µM; in [4], over 100 µM; in [5], 5.84 µM; in assay [6] it was over 23.3 µM. In addition, the TGI is over 100 µM in assay [7]; 14.8 µM in assay [8]; 6.92 µM in assay [9]; 4.99 µM in [10]; over 25.4 µM in assay [12]; 18.7 µM in [13]. The same molecule yielded a TGI in assay [14] of 3.97 µM.
Turning to `CCOC(=O)C1CCC(=O)N1C(=O)c1ccc(Cl)cc1` (configuration not stated), the TGI in assay [1], in [2], in assay [3], in assay [4], in [5] and in assay [6] was over 100 µM each time. For the same molecule, the TGI in [7], in assay [8], in assay [9], in assay [10], in [11] and in assay [13] was over 100 µM each time. The same molecule yielded a TGI in assay [14] of over 100 µM.
`O=C(O)C1(C(O)c2ccccc2)SCCCS1` (configuration not stated): the TGI in [1], in assay [2], in assay [3], in [4], in assay [5] and in assay [6] was over 10 µM in each case. Moreover, the TGI in assay [7], in [8], in [9], in assay [11], in [12] and in assay [13] was over 10 µM throughout. The TGI in assay [14] was over 10 µM.
On to `Clc1ccc(C2=NCON=C2c2ccc(Cl)cc2)cc1`, for which the TGI in assay [1] was determined as 41.7 µM; in assay [2], 30.9 µM; in assay [4], 55 µM; in assay [5] it was 39.6 µM; in assay [6], 85.6 µM; in assay [7] it was 42.9 µM. In addition, the TGI was 44.3 µM in [8]; 40.6 µM in [9]; 88.7 µM in [11]; 66.3 µM in assay [12]; 61.4 µM in [13]; 40.7 µM in assay [14].
Take `COc1cc2c(cc1OC)C(=O)/C(=C/c1ccc(N(C)C)cc1)CC2`: the TGI in [1], in assay [2], in [3], in assay [4], in assay [5] and in [6] was over 10 µM each time. The TGI in [7], in assay [8], in [9], in assay [11], in assay [12] and in [13] was over 10 µM each time. The molecule also yielded a TGI in assay [14] of over 10 µM.

The values above are taken from PubChem BioAssay (NCI).
